Type in all cases: cell-based
The subject of experiment [1] is human umbilical vein endothelial cells (HUVEC). Nature of the experiment: HUVEC proliferation, Calcein AM. The settings on record: Homo sapiens, HUVEC, read-out: Inhibitory concentration for HUVEC cells - IC50. Put shortly: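 Confluent HUVECs seeded in 96-well plates and exposed to compound for 24 or 72 h. Proliferation read by Calcein AM fluorescence.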
In experiment [2] the test system is human umbilical vein endothelial cells (HUVECs). The experiment is described as follows: Migration scratch assay. The arrangement: key to Wound area: ++: open; +: partly open; 0: closed. Conditions: for Wound area: 24 h. On the procedure:
Migration assay was performed as described previously (Krystof et al., 2011, Eur J Med Chem.; 46(9):4289-94). Briefly, confluent HUVECs were scratched and immediately treated for 24 h with various doses of compounds. After incubation each well was photographed using a DP Controller system (Olympus) connected to a Olympus BX50 microscope. Migration was expressed as the proportion of pixels of the wound area in the image that were not covered by cells using “in house” software.

The subject of another experiment is HepG2. Nature of the experiment: MTT cytotoxicity assay (Example 30). Conditions: Homo sapiens, HepG2, 72 h; MTT, three days after drug addition; read-out: Inhibitory concentration IC50, HepG2. An excerpt:
Cytotoxicity of the compounds is the major property determining their anticancer effect in vivo. One of the parameters used, as the basis for cytotoxicity assays, is the metabolic activity of viable cells. For example, a microtiter assay, which uses (3-(4,5-Dimethylthiazol-2-yl)-2,5-diphenyltetrazolium bromide (MTT), is widely used to quantitate cell proliferation and cytotoxicity. For instance, this assay is used in drug screening programs and in chemosensitivity testing. Because only metabolically active living cells reduce MTT to correspond purple formazan dye, these assays detect viable cells exclusively. The quantity of reduced MTT corresponds to the number of vital cells in the culture.
We have been using the following cell lines: HUH-7 and PLC/PRF/5 cell lines were maintained in DMEM supplemented with 10% fetal bovine serum, penicillin (100 U/ml) and streptomycin (100 μg/ml). Unique HCC-1.2 (3p) and HCC-1.1 (3sp) cell lines (Zilj et al., 2009, Future Oncol, 5(8):1169-79) and Hep3B cells were cultivated in RPMI supplemented with 10% fetal bovine serum, penicillin (100 U/ml) and streptomycin (100 μg/ml). HepG2 cell line was maintained in EMEM supplemented with 10% fetal bovine serum, sodium pyruvate (0.11 g/1), penicillin (100 U/ml) and streptomycin (100 μg/ml). All cell lines were cultivated at 37° C. in 5% CO2. For cytotoxicity assays, 3000 cells (10000 cells in case of HepG2 cell line) were seeded into each well of 96 well plate and the next day tested compounds were added at various concentrations in triplicates. Three days after drug addition MTT stock solution (5 mg/ml) was added into each well and incubated for 4 h. After this incubation period, produced formazan was dissolved by DMSO and final absorbance was measured at 570 nm with Synergy H4 Hybrid Multi-Mode Microplate Reader.
On the technique in general: Tetrazolium assays rely on reduction of a dye to a coloured formazan, in cell work by metabolically active cells.

A further experiment relates to HUH-7. The experiment is described as follows: MTT cytotoxicity assay (Example 30). Conditions: Homo sapiens, Huh-7, 72 h; MTT, three days after drug addition; read-out: Inhibitory concentration IC50, HUH-7.
The next experiment relates to HCC-1.1 (3sp). Nature of the experiment: MTT cytotoxicity assay (Example 30). Conditions: Homo sapiens, 72 h; MTT, three days after drug addition; read-out: Inhibitory concentration IC50, 3sp.
The next experiment concerns PLC/PRF/5. The experiment is described as follows: MTT cytotoxicity assay (Example 30). Conditions: Homo sapiens, PLC-PRF-5, 72 h; MTT, three days after drug addition; read-out: Inhibitory concentration IC50, PLC/PRF/5.
A further experiment relates to HCC-1.2 (3p). The experiment is described as follows: MTT cytotoxicity assay (Example 30). Conditions: Homo sapiens, HCC-1.2, 72 h; MTT, three days after drug addition; read-out: Inhibitory concentration IC50, 3p.

Structures are written as SMILES. Read-outs that look alike come from different tables or passages of the source.

In the case of `NC1CCC(Nc2nc(NCc3ccc(-c4ccoc4)nc3)c3ncn(C4CCCC4)c3n2)CC1` (stereo not shown) [BP36, N^2-(4-amino-cyclohexyl)-9-cyclopentyl-N^6-(6-furan-3-yl-pyridin-3-ylmethyl)-9H-purine-2,6-diamine], the IC50 in experiment [1] (24 h) was 20800 nM; in experiment [1] (72 h), 190 nM; in the experiment on HepG2 it was 131 nM; in the experiment with HUH-7, 332 nM; in the experiment on HCC-1.1 (3sp), 424 nM; with PLC/PRF/5, 18 nM. For the same compound, in the experiment on HCC-1.2 (3p), the IC50 was found to be 258 nM. The Wound area entry in experiment [2] (100 nM) is given as “+”; in experiment [2] (1000 nM) it was “++”.

In the case of `NC1CCC(Nc2nc(NCc3ccc(-c4ccccc4O)nc3)c3ncn(C4CCCC4)c3n2)CC1` (stereo not shown) [BP20, N^2-(4-amino-cyclohexyl)-9-cyclopentyl-N^6-[6-(2-hydroxy-phenyl)-pyridin-3-ylmethyl]-9H-purine-2,6-diamine], the IC50 in experiment [1] (24 h) is 29200 nM; in experiment [1] (72 h) it was 570 nM; in the experiment on HepG2 it was 68 nM; in the experiment on HUH-7, 182 nM; in the experiment on HCC-1.1 (3sp) it was 197 nM; with PLC/PRF/5, 7 nM. In addition, the IC50 with HCC-1.2 (3p) was found to be 132 nM. For the same compound, the Wound area result in experiment [2] (100 nM) and in experiment [2] (1000 nM) was “++” throughout. In experiment [2] (100 nM, 24 h treatment), the “inhibition of migration (in words)” value is “Significant inhibition of migration”.

As to `NC1CCC(Nc2nc(NCc3ccc(-c4ccco4)cc3)c3ncn(C4CCCC4)c3n2)CC1` (stereo not shown) [BP4, N^2-(4-amino-cyclohexyl)-9-cyclopentyl-N^6-(4-furan-2-yl-benzyl)-9H-purine-2,6-diamine], the IC50 was 15700 nM in experiment [1] (24 h); 450 nM in experiment [1] (72 h); 389 nM in the experiment with HepG2; 355 nM with HUH-7; 813 nM in the experiment with HCC-1.1 (3sp); 106 nM in the experiment on PLC/PRF/5. Also, the IC50 with HCC-1.2 (3p) came out at 802 nM. For the same compound, the figures for the Wound area in experiment [2] (100 nM) and in experiment [2] (1000 nM) were 0 and “++”, respectively.

As to `NC1CCC(Nc2nc(NCc3ccc(-c4ccsc4)nc3)c3ncn(C4CCCC4)c3n2)CC1` (stereo not shown) [BP35, N^2-(4-amino-cyclohexyl)-9-cyclopentyl-N^6-(6-thiophen-3-yl-pyridin-3-ylmethyl)-9H-purine-2,6-diamine], the IC50 in experiment [1] (24 h) was over 50000 nM; in experiment [1] (72 h) it was 180 nM; with HepG2 it was 278 nM; with HUH-7 it was 257 nM; in the experiment on HCC-1.1 (3sp) it was 328 nM; in the experiment with PLC/PRF/5, 37 nM. In addition, the IC50 in the experiment on HCC-1.2 (3p) came out at 218 nM. In addition, the Wound area in experiment [2] (100 nM) is listed as 0; in experiment [2] (1000 nM), “++”.

The values are drawn from patent US20150368248A1, “2-SUBSTITUTED-6-BIARYLMETHYLAMINO-9-CYCLOPENTYL-9H-PURINE DERIVATIVES, USE THEREOF AS MEDICAMENTS, AND PHARMACEUTICAL COMPOSITIONS” (UNIVERZITA PALACKEHO V OLOMOUCI, priority 2013, published 2015).
